Assay [1] has as its target T1, Serine/threonine-protein kinase STK11 (Homo sapiens) (UniProt Q15831).
T1 sequence (whole entry): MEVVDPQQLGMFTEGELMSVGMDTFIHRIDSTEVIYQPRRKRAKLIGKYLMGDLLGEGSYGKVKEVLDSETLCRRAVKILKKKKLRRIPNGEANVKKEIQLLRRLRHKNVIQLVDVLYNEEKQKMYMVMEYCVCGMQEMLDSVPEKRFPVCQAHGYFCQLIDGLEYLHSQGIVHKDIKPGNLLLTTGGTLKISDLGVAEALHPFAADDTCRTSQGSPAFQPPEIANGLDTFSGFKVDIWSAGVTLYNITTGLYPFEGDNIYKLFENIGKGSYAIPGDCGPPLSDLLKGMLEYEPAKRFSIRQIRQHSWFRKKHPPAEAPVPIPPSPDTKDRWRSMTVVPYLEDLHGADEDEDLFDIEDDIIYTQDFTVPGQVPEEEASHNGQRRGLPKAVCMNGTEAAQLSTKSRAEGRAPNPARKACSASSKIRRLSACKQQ
Put plainly: Inhibition of human recombinant LKB1 at 40 nM related to control ULK1.

Assay [2] has as its target T2, Ephrin type-A receptor 8 (Homo sapiens) (UniProt P29322).
T2 sequence (whole entry): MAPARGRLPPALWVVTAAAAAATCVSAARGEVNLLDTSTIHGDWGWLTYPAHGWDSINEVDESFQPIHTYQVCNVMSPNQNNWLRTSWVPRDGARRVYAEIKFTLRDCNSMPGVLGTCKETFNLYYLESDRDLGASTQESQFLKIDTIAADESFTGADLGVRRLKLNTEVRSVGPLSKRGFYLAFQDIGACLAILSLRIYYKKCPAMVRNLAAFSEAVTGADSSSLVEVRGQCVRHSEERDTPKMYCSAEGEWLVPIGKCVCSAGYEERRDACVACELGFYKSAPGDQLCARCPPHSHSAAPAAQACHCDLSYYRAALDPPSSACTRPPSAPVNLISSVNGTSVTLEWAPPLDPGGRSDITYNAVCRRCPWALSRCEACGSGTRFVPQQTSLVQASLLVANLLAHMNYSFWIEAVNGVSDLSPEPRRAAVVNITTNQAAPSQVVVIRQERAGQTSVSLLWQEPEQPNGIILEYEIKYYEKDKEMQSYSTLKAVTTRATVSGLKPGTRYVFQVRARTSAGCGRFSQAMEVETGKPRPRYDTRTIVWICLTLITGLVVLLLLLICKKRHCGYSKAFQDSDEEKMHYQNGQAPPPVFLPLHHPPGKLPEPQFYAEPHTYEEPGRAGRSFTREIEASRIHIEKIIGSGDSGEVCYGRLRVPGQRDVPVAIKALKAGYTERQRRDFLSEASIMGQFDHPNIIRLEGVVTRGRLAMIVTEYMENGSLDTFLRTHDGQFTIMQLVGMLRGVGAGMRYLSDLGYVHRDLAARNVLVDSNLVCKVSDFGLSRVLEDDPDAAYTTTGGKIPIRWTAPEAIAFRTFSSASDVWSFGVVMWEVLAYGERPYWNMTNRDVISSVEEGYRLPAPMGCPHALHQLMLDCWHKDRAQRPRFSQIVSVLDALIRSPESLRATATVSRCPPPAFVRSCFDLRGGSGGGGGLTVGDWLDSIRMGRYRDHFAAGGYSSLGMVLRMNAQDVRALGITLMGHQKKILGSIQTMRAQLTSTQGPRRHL
Put plainly: Inhibition of human recombinant EphA8 at 40 nM in presence of ATP by radiometric assay relative to control.

Assay [3] has as its target T3, MAPK/MAK/MRK overlapping kinase (Homo sapiens) (UniProt Q9UQ07).
T3 sequence (whole entry): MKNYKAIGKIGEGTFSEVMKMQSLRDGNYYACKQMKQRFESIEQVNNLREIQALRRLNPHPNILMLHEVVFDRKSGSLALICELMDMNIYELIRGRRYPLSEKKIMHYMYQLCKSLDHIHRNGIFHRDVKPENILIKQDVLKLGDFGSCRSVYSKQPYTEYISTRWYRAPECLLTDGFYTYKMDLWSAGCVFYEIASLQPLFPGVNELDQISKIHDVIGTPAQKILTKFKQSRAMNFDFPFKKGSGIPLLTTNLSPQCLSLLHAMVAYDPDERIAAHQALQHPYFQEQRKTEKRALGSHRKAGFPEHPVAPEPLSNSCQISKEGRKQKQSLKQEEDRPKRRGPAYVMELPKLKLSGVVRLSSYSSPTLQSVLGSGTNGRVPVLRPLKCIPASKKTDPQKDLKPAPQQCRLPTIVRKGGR
Put plainly: Inhibition of human recombinant MOK at 500 nM related to control ULK1.

The target in assay [4] is Vascular endothelial growth factor receptor 3 (Homo sapiens) (UniProt P35916). Briefly: Inhibition of human recombinant FLT4 at 500 nM in presence of ATP by radiometric assay relative to control.
Sequence of Vascular endothelial growth factor receptor 3 (Homo sapiens) (P35916 whole entry): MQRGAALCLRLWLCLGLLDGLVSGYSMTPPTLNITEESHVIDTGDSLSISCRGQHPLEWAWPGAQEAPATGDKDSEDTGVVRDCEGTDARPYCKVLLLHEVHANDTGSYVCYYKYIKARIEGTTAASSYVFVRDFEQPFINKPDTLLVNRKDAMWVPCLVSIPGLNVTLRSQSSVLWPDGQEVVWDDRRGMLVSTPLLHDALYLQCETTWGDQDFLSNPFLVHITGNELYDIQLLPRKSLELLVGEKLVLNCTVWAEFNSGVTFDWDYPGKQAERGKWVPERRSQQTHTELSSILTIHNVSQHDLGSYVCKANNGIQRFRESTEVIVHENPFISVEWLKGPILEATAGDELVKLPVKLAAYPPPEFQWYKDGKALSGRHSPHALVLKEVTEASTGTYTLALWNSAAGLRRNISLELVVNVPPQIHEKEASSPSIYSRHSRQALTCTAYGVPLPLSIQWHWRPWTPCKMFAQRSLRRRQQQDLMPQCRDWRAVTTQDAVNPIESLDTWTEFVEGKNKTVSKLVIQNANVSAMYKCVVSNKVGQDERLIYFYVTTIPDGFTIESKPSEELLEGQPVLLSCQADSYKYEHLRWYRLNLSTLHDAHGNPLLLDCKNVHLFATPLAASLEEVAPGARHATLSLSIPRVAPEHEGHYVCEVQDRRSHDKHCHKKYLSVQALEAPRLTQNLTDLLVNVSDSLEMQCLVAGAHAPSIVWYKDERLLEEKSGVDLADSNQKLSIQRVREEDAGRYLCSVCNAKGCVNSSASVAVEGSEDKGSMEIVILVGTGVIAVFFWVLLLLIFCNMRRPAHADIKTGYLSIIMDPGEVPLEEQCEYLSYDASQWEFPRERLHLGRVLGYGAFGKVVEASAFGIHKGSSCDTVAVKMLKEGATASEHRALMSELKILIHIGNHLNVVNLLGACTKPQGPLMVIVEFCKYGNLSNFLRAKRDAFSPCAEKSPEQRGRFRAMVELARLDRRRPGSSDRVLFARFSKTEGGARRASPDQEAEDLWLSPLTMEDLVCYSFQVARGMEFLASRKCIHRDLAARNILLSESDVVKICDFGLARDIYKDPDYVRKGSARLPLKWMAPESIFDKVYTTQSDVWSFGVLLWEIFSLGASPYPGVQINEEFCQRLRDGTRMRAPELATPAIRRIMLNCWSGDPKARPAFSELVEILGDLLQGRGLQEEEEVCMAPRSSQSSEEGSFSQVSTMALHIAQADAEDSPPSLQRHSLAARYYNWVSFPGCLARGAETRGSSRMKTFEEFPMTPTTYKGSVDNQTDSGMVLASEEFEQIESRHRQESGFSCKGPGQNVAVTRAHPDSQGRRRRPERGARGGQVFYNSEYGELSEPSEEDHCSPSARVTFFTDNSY
Assay [5] concerns the target Cyclin-dependent kinase 3 (Homo sapiens) (UniProt Q00526). Put plainly: Inhibition of human recombinant CDK3 at 500 nM in presence of ATP by radiometric assay relative to control.
Assay [6] has the same target. Put plainly: Inhibition of human recombinant CDK3 at 500 nM related to control ULK1.
Assay [7] concerns the target Death-associated protein kinase 3 (Homo sapiens) (UniProt O43293). Put plainly: Inhibition of human recombinant DAPK3 at 500 nM in presence of ATP by radiometric assay relative to control.
The target of assay [8] is T4, NUAK family SNF1-like kinase 1 (Homo sapiens) (UniProt O60285).
T4 sequence (whole entry): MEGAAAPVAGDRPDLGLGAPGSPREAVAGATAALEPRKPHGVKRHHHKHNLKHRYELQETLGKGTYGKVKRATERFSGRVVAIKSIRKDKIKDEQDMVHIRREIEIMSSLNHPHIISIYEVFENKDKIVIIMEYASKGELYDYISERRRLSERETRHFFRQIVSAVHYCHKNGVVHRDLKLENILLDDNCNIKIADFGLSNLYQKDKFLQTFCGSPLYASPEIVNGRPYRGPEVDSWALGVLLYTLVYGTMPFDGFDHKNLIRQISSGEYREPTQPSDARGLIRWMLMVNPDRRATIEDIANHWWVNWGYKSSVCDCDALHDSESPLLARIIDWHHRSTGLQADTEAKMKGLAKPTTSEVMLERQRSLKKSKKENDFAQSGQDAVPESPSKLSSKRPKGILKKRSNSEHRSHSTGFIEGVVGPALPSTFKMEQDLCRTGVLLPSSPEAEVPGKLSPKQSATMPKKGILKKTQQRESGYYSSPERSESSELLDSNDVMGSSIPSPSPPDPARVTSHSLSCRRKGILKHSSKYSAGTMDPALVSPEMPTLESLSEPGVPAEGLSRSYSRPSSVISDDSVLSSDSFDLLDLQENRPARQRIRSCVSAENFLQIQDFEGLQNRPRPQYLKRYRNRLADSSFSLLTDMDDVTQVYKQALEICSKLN
Put plainly: Inhibition of human recombinant NuaK1 at 500 nM in presence of ATP by radiometric assay relative to control.

The target in assay [9] is Tyrosine-protein kinase BTK (Homo sapiens) (UniProt Q06187). Briefly: Inhibition of human recombinant BTK at 500 nM in presence of ATP by radiometric assay relative to control.
Sequence of Tyrosine-protein kinase BTK (Homo sapiens) (Q06187 whole entry): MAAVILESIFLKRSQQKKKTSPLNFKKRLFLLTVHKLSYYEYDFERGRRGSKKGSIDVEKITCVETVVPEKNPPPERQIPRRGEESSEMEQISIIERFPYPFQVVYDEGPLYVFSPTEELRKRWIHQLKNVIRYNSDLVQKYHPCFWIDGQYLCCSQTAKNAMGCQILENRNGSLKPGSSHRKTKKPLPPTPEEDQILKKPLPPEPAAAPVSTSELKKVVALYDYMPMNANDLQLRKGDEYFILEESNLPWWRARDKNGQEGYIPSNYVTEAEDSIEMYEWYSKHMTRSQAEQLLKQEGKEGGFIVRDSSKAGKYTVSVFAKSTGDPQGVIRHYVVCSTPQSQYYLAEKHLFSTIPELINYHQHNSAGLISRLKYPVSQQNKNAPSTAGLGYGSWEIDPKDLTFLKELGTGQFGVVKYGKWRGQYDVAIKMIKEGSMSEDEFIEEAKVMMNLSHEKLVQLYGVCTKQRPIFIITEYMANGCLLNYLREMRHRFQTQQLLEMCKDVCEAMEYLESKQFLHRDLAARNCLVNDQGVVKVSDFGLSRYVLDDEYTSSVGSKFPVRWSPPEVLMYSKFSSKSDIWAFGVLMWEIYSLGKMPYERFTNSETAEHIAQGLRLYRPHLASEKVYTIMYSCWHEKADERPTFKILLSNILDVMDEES

Molecules are shown by their SMILES.

Sequence of Cyclin-dependent kinase 3 (Homo sapiens) (Q00526 whole entry, looked up): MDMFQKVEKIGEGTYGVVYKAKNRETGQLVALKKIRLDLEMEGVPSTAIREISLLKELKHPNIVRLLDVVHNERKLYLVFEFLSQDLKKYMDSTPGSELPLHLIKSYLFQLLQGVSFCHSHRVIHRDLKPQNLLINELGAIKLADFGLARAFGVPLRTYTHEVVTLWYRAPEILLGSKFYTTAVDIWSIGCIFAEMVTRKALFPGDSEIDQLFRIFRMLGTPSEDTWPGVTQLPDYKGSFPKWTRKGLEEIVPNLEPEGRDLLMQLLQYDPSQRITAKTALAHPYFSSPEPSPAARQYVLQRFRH
Sequence of Death-associated protein kinase 3 (Homo sapiens) (O43293 whole entry, looked up): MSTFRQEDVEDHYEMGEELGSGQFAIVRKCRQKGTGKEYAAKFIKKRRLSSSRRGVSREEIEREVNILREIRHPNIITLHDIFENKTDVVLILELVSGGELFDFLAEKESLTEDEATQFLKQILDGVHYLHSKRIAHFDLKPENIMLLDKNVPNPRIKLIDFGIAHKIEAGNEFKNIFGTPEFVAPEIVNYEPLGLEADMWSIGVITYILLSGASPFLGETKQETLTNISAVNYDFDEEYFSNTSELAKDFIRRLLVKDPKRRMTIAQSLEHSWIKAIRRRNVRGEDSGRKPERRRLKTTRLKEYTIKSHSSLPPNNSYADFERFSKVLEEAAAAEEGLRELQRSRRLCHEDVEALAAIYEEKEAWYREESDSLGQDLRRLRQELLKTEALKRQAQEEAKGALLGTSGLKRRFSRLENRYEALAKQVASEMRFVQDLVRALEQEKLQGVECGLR

Consider `O=C(N[C@@H](C1CC1)C(F)(F)F)c1cc(-c2cnn3cc(-c4ccc(F)cc4)cnc23)cs1`, for which the fold change (FC) in [1] came out at 0.18. Besides, the inhibition (in general, the percentage by which the read-out fell short of the control) in assay [2] is 0%.

For the molecule `CNC(=O)c1ccccc1Oc1nc(Nc2cc(OC)c(OC)c(OC)c2)ncc1Br`, the fold change (FC) in assay [3] was 0.03; in assay [6] it was 0.01. The inhibition was found to be 23% in assay [4]; 1% in assay [5]; 10% in [7]; 71% in [8]; 0% in assay [9].

(Values after ChEMBL document CHEMBL5653631, “A Potent and Selective ULK1 Inhibitor Suppresses Autophagy and Sensitizes Cancer Cells to Nutrient Stress” (iScience, 2018).)
